Source: ChEMBL document CHEMBL4616720 (J Med Chem, 2020)

How the values were obtained:
HCT-116 = assay: Antiproliferative activity against human HCT116 cells assessed as reduction in cell growth measured after 48 hrs by CCK8 assay; type: functional, cell-based; settings: HCT-116, 48 h
[1] = target: T1, Peptide deformylase, mitochondrial (Homo sapiens, UniProt Q9HBH1); assay: Inhibition of human PDF expressed in Escherichia coli BL21 pLysS using formyl-Met-Ala-His-Ala peptide as substrate measured after 1 hr by fluorescamine-based fluorescence assay
T1 sequence (Q9HBH1 whole entry): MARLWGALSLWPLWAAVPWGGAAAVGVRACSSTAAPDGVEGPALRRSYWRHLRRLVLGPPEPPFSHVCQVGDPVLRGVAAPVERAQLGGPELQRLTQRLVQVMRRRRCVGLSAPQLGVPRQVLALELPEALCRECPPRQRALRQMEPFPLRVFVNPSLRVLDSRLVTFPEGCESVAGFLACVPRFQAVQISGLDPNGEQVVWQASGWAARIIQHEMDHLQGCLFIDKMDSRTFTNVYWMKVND

[2] = target: T2, Protein deacetylase HDAC6 (Homo sapiens, UniProt Q9UBN7); assay: Inhibition of HDAC6 (unknown origin) using Boc-Lys(Ac)-pNA as substrate preincubated for 20 mins followed by substrate addition and further incubated for 90 mins by fluorescence assay
T2 sequence (Q9UBN7 whole entry): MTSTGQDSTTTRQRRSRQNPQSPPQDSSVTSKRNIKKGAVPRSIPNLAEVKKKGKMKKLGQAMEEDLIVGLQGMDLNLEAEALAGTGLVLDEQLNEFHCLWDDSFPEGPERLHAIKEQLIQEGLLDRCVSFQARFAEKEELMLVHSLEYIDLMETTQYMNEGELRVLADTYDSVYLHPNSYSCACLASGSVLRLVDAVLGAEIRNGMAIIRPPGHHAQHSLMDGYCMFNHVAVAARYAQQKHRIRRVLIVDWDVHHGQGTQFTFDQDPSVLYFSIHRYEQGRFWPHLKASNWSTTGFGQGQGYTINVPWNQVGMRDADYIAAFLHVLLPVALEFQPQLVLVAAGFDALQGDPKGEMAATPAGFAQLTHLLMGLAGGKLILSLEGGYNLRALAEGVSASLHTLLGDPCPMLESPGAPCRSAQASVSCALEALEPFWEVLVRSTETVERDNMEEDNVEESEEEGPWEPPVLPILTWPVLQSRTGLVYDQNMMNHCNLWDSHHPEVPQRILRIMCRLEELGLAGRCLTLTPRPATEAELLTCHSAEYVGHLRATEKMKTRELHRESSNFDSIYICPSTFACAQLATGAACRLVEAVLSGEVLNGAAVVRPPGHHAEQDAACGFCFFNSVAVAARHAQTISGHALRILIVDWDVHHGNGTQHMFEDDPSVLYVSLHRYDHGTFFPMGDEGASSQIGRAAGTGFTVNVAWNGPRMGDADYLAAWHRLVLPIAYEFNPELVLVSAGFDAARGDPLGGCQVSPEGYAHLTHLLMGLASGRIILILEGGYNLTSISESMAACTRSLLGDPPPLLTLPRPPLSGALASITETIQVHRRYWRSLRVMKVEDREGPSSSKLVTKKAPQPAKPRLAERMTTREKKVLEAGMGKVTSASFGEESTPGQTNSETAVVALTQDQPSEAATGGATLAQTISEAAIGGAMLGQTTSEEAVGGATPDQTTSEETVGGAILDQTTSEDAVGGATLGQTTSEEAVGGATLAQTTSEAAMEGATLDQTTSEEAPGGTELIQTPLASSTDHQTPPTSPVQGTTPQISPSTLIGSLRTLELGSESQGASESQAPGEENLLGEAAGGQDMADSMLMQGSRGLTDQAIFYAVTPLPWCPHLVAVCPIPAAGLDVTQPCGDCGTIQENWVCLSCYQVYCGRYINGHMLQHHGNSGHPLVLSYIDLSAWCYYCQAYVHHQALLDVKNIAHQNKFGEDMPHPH

Histone deacetylase 1 [3] = target: T3, Histone deacetylase 1 (Homo sapiens, UniProt Q13547); assay: Inhibition of HDAC1 (unknown origin) using Boc-Lys(Ac)-pNA as substrate preincubated for 20 mins followed by substrate addition and further incubated for 90 mins by fluorescence assay
MCF-10A = assay: Cytotoxicity against human MCF10A cells assessed as reduction in cell growth measured after 48 hrs by CCK8 assay; type: cell-based
MCF7 = assay: Antiproliferative activity against human MCF7 cells assessed as reduction in cell growth measured after 48 hrs by CCK8 assay; type: functional, cell-based; settings: MCF7, 48 h
SJSA-1 = assay: Antiproliferative activity against human SJSA1 cells assessed as reduction in cell growth measured after 48 hrs by CCK8 assay; type: functional, cell-based; settings: SJSA-1, 48 h
A549 = assay: Antiproliferative activity against human A549 cells assessed as reduction in cell growth measured after 48 hrs by CCK8 assay; type: functional, cell-based; settings: A549, 48 h
HL-60 = assay: Antiproliferative activity against human HL60 cells assessed as reduction in cell growth measured after 48 hrs by CCK8 assay; type: functional, cell-based; settings: HL-60, 48 h
[4] = target: T4, Protein deacetylase HDAC6 (Homo sapiens) (UniProt Q9UBN7); assay: Inhibition of HDAC6 (unknown origin) at 10 uM using Boc-Lys(Ac)-pNA as substrate preincubated for 20 mins followed by substrate addition and further incubated for 90 mins by fluorescence assay relative to control
T4 sequence (whole entry): T2 sequence (Q9UBN7 whole entry)

Histone deacetylase 1 [5] = target: T3, Histone deacetylase 1; assay: Inhibition of HDAC1 (unknown origin) at 10 uM using Boc-Lys(Ac)-pNA as substrate preincubated for 20 mins followed by substrate addition and further incubated for 90 mins by fluorescence assay relative to control

T3 sequence (Q13547 whole entry): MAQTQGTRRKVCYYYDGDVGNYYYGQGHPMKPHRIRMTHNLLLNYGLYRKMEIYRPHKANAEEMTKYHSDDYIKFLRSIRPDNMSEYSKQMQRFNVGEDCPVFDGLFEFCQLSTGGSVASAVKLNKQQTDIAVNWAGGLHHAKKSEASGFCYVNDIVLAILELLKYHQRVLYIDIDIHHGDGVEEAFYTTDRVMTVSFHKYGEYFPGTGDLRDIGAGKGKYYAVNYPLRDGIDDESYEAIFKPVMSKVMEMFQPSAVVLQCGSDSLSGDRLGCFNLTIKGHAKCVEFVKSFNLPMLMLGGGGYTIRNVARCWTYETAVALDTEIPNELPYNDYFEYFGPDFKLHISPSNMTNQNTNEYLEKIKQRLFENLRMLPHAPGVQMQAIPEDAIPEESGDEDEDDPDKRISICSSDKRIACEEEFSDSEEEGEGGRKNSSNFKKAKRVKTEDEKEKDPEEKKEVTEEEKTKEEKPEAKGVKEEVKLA

| Compound | IC50 (HCT-116) | IC50 [1] | further results |
| --- | --- | --- | --- |
| O=C(C[C@@H](CC1CCCC1)C(=O)N1CC2(CC2)C[C@H]1C(=O)Nc1ccccc1)NO | 14.9 µM | 0.00642 µM | – |
| O=C(C[C@@H](CC1CCCC1)C(=O)N1CC2(CC2)C[C@H]1c1nc(-c2cc(F)cc(F)c2F)no1)NO | 3.62 µM | 0.00708 µM | – |
| Cc1cnc(NC(=O)[C@@H]2CCCN2C(=O)[C@@H](CC(=O)NO)CC2CCCC2)s1 | > 40 µM | 0.00894 µM | – |
| O=C(C[C@@H](CC1CCCC1)C(=O)N1CC2(CC2)C[C@H]1C(=O)Nc1ccc(Br)cc1)NO | 5.35 µM | 0.00612 µM | – |
| O=C(C[C@@H](CC1CCCC1)C(=O)N1CC2(CC2)C[C@H]1C(=O)Nc1cnccn1)NO | > 40 µM | 0.00587 µM | – |
| Cc1cc(C)cc(C(=O)NOCCCCCC(=O)NO)c1 | – | – | IC50 [2]: 0.012 µM; IC50 (Histone deacetylase 1 [3]): 0.058 µM |
| Cc1csc(NC(=O)[C@@H]2CC3(CC3)CN2C(=O)[C@@H](CC(=O)NO)CC2CCCC2)n1 | 29.1 µM | 0.00299 µM | – |
| O=C(C[C@@H](CC1CCCC1)C(=O)N1CC2(CC2)C[C@H]1C(=O)Nc1ccc(F)cn1)NO | 20.2 µM | 0.00587 µM | – |
| O=C(C[C@@H](CC1CCCC1)C(=O)N1CC2(CC2)C[C@H]1c1nc(-c2ccc(C(F)(F)F)cc2F)no1)NO | 10 µM | 0.00485 µM | IC50 (MCF-10A): 29.1 µM; IC50 (MCF7): 10.6 µM; IC50 (SJSA-1): 8.7 µM; IC50 (A549): 10.3 µM; IC50 (HL-60): 4.77 µM |
| O=C(C[C@@H](CC1CCCC1)C(=O)N1CC2(CC2)C[C@H]1c1nc(-c2ccc(C(F)(F)F)cc2)no1)NO | 4.11 µM | 0.00719 µM | IC50 (MCF-10A): 22.4 µM; IC50 (MCF7): 5.79 µM; IC50 (SJSA-1): 2.95 µM; IC50 (A549): 3.45 µM; IC50 (HL-60): 3.06 µM |
| Cc1ccc(NC(=O)[C@@H]2CC3(CC3)CN2C(=O)[C@@H](CC(=O)NO)CC2CCCC2)cc1 | 11.2 µM | 0.00358 µM | – |
| Cn1cc(NC(=O)[C@@H]2CC3(CC3)CN2C(=O)[C@@H](CC(=O)NO)CC2CCCC2)cn1 | > 40 µM | 0.0302 µM | – |
| Cc1ccc(-c2noc([C@@H]3CC4(CC4)CN3C(=O)[C@@H](CC(=O)NO)CC3CCCC3)n2)cc1 | 7.78 µM | 0.00926 µM | IC50 (MCF-10A): 29.8 µM; IC50 (MCF7): 9.89 µM; IC50 (SJSA-1): 5.35 µM; IC50 (A549): 8.69 µM; IC50 (HL-60): 5.35 µM |
| O=C(C[C@@H](CC1CCCC1)C(=O)N1CC2(CC2)C[C@H]1c1nc(-c2ccc(F)cn2)no1)NO | > 40 µM | 0.00501 µM | – |
| O=C(C[C@@H](CC1CCCC1)C(=O)N1CC2(CC2)C[C@H]1C(=O)Nc1cccnn1)NO | > 40 µM | 0.0131 µM | – |
| O=C(C[C@@H](CC1CCCC1)C(=O)N1CC2(CC2)C[C@H]1c1nc(-c2cnccn2)no1)NO | > 40 µM | 0.0161 µM | – |

| Compound | IC50 (HCT-116) | IC50 [1] | further results |
| --- | --- | --- | --- |
| O=C(C[C@@H](CC1CCCC1)C(=O)N1CC2(CC2)C[C@H]1C(=O)Nc1nccs1)NO | > 40 µM | 0.00874 µM | – |
| O=C(C[C@@H](CC1CCCC1)C(=O)N1CC2(CC2)C[C@H]1c1nc(-c2ccc(C3CC3)cc2)no1)NO | 3.47 µM | 0.00501 µM | – |
| Cc1noc([C@@H]2CC3(CC3)CN2C(=O)[C@@H](CC(=O)NO)CC2CCCC2)n1 | > 40 µM | 0.0293 µM | – |
| CCCC[C@H](CC(=O)NO)C(=O)N1CC2(CC2)C[C@H]1C(=O)Nc1ccc(F)cn1 | > 40 µM | 0.00492 µM | – |
| O=C(C[C@@H](CC1CCCC1)C(=O)N1CC2(CC2)C[C@H]1C(=O)Nc1ccncn1)NO | > 40 µM | 0.00953 µM | – |
| CCCC[C@H](CC(=O)NO)C(=O)N1CC2(CC2)C[C@H]1C(=O)Nc1ncc(C)s1 | > 40 µM | 0.00942 µM | – |
| Cc1cnc(NC(=O)[C@@H]2CC3(CC3)CN2C(=O)[C@@H](CC(=O)NO)CC2CCCC2)s1 | 18.7 µM | 0.00278 µM | – |
| CCCCc1ccc(-c2noc([C@@H]3CC4(CC4)CN3C(=O)[C@@H](CC(=O)NO)CC3CCCC3)n2)cc1 | 2.07 µM | 0.00424 µM | – |
| O=C(C[C@@H](CC1CCCC1)C(=O)N1CCC[C@H]1C(=O)Nc1ccc(F)cn1)NO | > 40 µM | 0.0109 µM | – |
| O=C(C[C@@H](CC1CCCC1)C(=O)N1CC2(CC2)C[C@H]1c1nc(-c2ccc(Br)cc2)no1)NO | 2.87 µM | 0.00548 µM | IC50 (MCF-10A): 21.7 µM; IC50 (MCF7): 3.56 µM; IC50 (SJSA-1): 2.56 µM; IC50 (A549): 2.61 µM; IC50 (HL-60): 2.17 µM |
| O=C(C[C@@H](CC1CCCC1)C(=O)N1CC2(CC2)C[C@H]1c1nc(-c2ccccc2)no1)NO | 4.46 µM | 0.00377 µM | IC50 [2]: > 10 µM; IC50 (MCF-10A): 32.3 µM; IC50 (MCF7): 8.64 µM; IC50 (SJSA-1): 3.8 µM; inhibition [4]: 1.08%; IC50 (Histone deacetylase 1 [3]): > 10 µM; IC50 (A549): 2.55 µM; inhibition (Histone deacetylase 1 [5]): -0.95%; IC50 (HL-60): 3.58 µM |
| C=C1C[C@@H](C(=O)Nc2ccc(F)cn2)N(C(=O)[C@@H](CC(=O)NO)CC2CCCC2)C1 | > 40 µM | 0.00715 µM | – |
| CCc1ccc(-c2noc([C@@H]3CC4(CC4)CN3C(=O)[C@@H](CC(=O)NO)CC3CCCC3)n2)cc1 | 2.31 µM | 0.00881 µM | IC50 (MCF-10A): 19.9 µM; IC50 (MCF7): 3.95 µM; IC50 (SJSA-1): 2.82 µM; IC50 (A549): 2.43 µM; IC50 (HL-60): 1.88 µM |
| O=C(C[C@@H](CC1CCCC1)C(=O)N1CC2(CC2)C[C@H]1C(=O)Nc1ccc(F)cc1C(F)(F)F)NO | 24.5 µM | 0.00701 µM | – |
| O=C(C[C@@H](CC1CCCC1)C(=O)N1CC2(CC2)C[C@H]1c1nc(-c2ccc(C(F)(F)F)cc2Cl)no1)NO | 3.49 µM | 0.00647 µM | IC50 (MCF-10A): 28.4 µM; IC50 (MCF7): 5.78 µM; IC50 (SJSA-1): 3.15 µM; IC50 (A549): 2.53 µM; IC50 (HL-60): 3.45 µM |
